Read-outs that look alike come from different tables or passages of the source.
Columns and labels:
[1] = Pharmacokinetic profile in Sprague Dawley rats (IV and PO); type: in vivo; details: Mean + SD (n = 3); for half-life / Cmax / bioavailability: Sprague Dawley; for half-life / Cmax / bioavailability / C0 / AUC(0-inf) / AUC(0-t) / clearance / MRT inf / Tmax: rat, plasma; for bioavailability: read-out: F (oral bioavailability); for clearance: read-out: Cl_obs
Experimental: To evaluate the pharmacokinetic profile by oral (PO) and intravenous (IV) administration routes we used 6 to 8-week old Sprague Dawley rats weighing approximately 200-330g (n = 3 per study group). Compounds were administered at 1mg/kg in 5% Cremophor EL and 20% PEG400 in water for IV and 5mg/kg in PBS for PO. All dose formulation was performed at room temperature. Animals were fasted overnight prior to dosing and were re-fed approximately 4 hours after dosing. For PO, 0.2ml of blood was collected pre- and 0.5, 1, 2, 4 8 12 and 24-hours after drug delivery and transferred to EDTA-K2 BD Vacutainer plastic blood collection tubes. IV samples were collected pre-injection and 0.08, 0.25, 0.5, 1, 2, 4, 8, 12, 24-hours post injection. Blood samples were centrifuged at 2,000 g for 5 minutes at 4°C to obtain plasma. Plasma samples were stored at -75±15°C prior to analysis and then thawed and analyzed by LC-MS/MS method and pharmacokinetic calculations were performed using WinNolin (Phoenix, version 6.4). For IV administration: T1/2, C0, AUClast, AUCinf, MRT, Cl, Vss, and number of points for regression were determined. For PO administration: T1/2, Cmax, Tmax, AUCinf, AUClast, F(0-∞) %, and number of points for regression were determined. Data are reported as mean and standard deviation.

[2] = tested on: p-AMPK Thr-172; experiment: Western blot of p-AMPK Thr-172 in liver of HFD-fed mice; details: HFD fed-DIO mice; 10mg/kg for 12 days; vs sham
[3] = tested on: Salmonella typhimurium (TA98, TA100, TA1535 and TA1537) and Escherichia coli (WP2 uvrA (pKM101)); experiment: Ames assay, overall outcome and cytotoxicity across strains
[4] = tested on: fatty acid synthase (FAS); experiment: Western blot of fatty acid synthase in liver of HFD-fed mice; details: HFD fed-DIO mice; 10mg/kg for 12 days; vs sham
[5] = tested on: carbonic anhydrase-III (CAIII); experiment: Western blot of carbonic anhydrase III in liver of HFD-fed mice; details: HFD fed-DIO mice; 10mg/kg for 12 days; vs sham
[6] = Body weight changes in HFD-fed mice; type: in vivo, mouse; details: 10mg/kg I.P daily for 12 days
Experimental: We next measured body weight changes in HFD-fed animals prior to treatment with niclosamide or phenylbenzamide derivatives and after 12 days, prior to sacrifice. During this time, all animals (including sham) lost some weight.
20-week old animals were treated IP with 500199 at 10 or 25mg/kg by IP over a time-course of 9 days. At day 0, 3, 6 and 9 animals were weighed and tissue samples were collected for standard histological scoring of hepatic steatosis and automated quantitative histomorphometric scoring.

[7] = iv, 1 mg/kg, IV 1 mg/kg, read-out: T 1/2 (IV) (converted)
[8] = po, 5 mg/kg, PO 5 mg/kg vs IV 1 mg/kg
[9] = IV 1 mg/kg, read-out: AUC Inf (IV)
[10] = IV 1 mg/kg, read-out: AUC last (IV)
[11] = IV 1 mg/kg, read-out: MRT Inf_obs (IV)
[12] = PO 5 mg/kg in PBS, read-out: AUC Inf (PO)
[13] = PO 5 mg/kg in PBS, read-out: AUC last (PO)
[14] = PO 5 mg/kg in PBS, read-out: MRT Inf_obs (PO)

SMILES | AUC _%Extrap_obs (IV) ([1]; IV 1 mg/kg) | AUCl ast/D (IV) ([1]; IV 1 mg/kg) [ng·kg·h/mL/mg] | V ss_obs ([1]; IV 1 mg/kg) [L/kg] | AUC _%Extrap_obs (PO) ([1]; PO 5 mg/kg in PBS) | AUC last / D (PO) ([1]; PO 5 mg/kg in PBS) [ng·kg·h/mL/mg] | half-life [1, 7] [h] | Cmax ([1]; po, 5 mg/kg, PO 5 mg/kg in PBS) [ng/mL] | bioavailability [1, 8] [%] | C0 ([1]; IV 1 mg/kg) [ng/mL] | AUC(0-inf) [1, 9] [ng·h/mL] | AUC(0-t) [1, 10] [ng·h/mL] | clearance ([1]; IV 1 mg/kg) [mL/min/kg] | MRT inf [1, 11] [h] | Tmax ([1]; PO 5 mg/kg in PBS) [h] | AUC(0-inf) [1, 12] [ng·h/mL] | AUC(0-t) [1, 13] [ng·h/mL] | MRT inf [1, 14] [h] | also measured
CC(C)(C)c1ccc(O)c(C(=O)Nc2ccc(C(=O)O)cc2Cl)c1 [Compound 500200, 4-[(5-tert-butyl-2-hydroxybenzene)amido]-3-chlorobenzoic acid] | 0.13 +/- 0.016% | 1940 ± 166 | 0.13 ± 0.020 | 1.94 +/- 1.27% | 43.3 ± 25.3 | 1.66 ± 0.48 | 50.8 ± 35.7 | 2.26 ± 1.29 | 13800 ± 2610 | 1940 ± 166 | 1940 ± 166 | 8.63 ± 0.78 | 0.26 ± 0.048 | 3.33 ± 1.15 | 220 ± 1250 | 216 ± 127 | 4.04 ± 0.68 | half-life ([1]; po, 5 mg/kg, PO 5 mg/kg in PBS, read-out: T 1/2 (PO) (converted)): 1.51 ± 0.4 h; phosphorylation of AMPK at Thr-172 in liver [2]: stimulated phosphorylation of AMPK at Thr-172; Ames assay outcome (mutagenicity) [3]: negative; cytotoxicity in the Ames assay ([3]; relative to the negative control, presence and absence of S9 mix): cytotoxicity was exhibited at the highest concentrations in both strains; FAS protein levels in liver [4]: reduced; CAIII protein levels in liver [5]: reduced
CC(C)(C)c1ccc(O)c(C(=O)Nc2ccc(C(=O)O)cc2C(F)(F)F)c1 [Compound 500873, 4-[(5-tert-butyl-2-hydroxy)amido]-3-(trifluoromethyl)benzoic acid] | 0.249 +/- 0.151% | 13000 ± 3070 | 0.11 ± 0.004 | 11.14 +/- 11.6% | 1290 ± 817 | 2.87 ± 0.86 | 912 | 10 | 24100 ± 4000 | 13000 ± 3070 | 13000 ± 3070 | 1.33 ± 0.31 | 1.42 ± 0.29 | 3.33 ± 1.15 | 6950 ± 3680 | 6430 ± 4080 | 10 ± 5.6 | C max ([1]; PO 5 mg/kg in PBS, 5 mg/kg): 912.33 ± 856 ng/mL; F (oral bioavailability) ([1]; PO 5 mg/kg vs IV 1 mg/kg): 10.20 +/-6.3%; body weight change vs sham [6]: lost weight but this loss failed to reach significance
